Source: ChEMBL document CHEMBL5550154, “Novel biaryloxazolidinone derivatives with broad-spectrum antibacterial activity, favorable drug-like profiles and in vivo efficacy against linezolid-resistant Staphylococcusaureus” (Eur J Med Chem, 2024)
Converted amounts (≈) assume the structure as drawn. The source made the active and inactive calls. The rule behind the calls is not given here.

Experiments:
[1] = test system: Staphylococcus aureus; assay: Antibacterial activity against Linezolid-resistant Staphylococcus aureus infected in systemic infection SPF-kunming mouse model assessed as survival rate at 10 mg/kg, IG measured every day for 7 days; assay type: functional, organism-based; details: time 7.0 day
[2] = biological target: T1, Amine oxidase [flavin-containing] B (Homo sapiens, UniProt P27338); assay: Inhibition of MAO-B (unknown origin) preincubated with compound for 15 mins followed by substrate addition and measured after 60 mins by luminescence based microplate reader analysis; assay type: toxicity
T1 sequence (P27338 whole entry): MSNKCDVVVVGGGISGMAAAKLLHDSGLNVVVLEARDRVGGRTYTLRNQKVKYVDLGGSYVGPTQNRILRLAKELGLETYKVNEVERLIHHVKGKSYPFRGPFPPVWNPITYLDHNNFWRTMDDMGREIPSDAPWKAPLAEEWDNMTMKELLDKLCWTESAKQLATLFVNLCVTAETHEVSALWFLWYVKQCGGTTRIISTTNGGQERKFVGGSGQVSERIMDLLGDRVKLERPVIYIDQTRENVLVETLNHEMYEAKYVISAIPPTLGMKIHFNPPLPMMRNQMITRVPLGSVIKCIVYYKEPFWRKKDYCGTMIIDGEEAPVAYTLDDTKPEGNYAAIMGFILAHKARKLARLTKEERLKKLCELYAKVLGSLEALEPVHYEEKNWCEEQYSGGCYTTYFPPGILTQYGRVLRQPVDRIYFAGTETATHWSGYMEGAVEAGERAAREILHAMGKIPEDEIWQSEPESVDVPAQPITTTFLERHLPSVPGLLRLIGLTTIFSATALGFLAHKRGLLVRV

[3] = test system: Staphylococcus aureus; assay: Antibacterial activity against Linezolid-resistant Staphylococcus aureus infected in systemic infection IG dosed SPF-kunming mouse model assessed as survival rate measured every day for 7 days; assay type: functional, organism-based; details: dose 2.5-40 mg/kg, time 7.0 day
[4] = test system: Staphylococcus aureus; assay: Antibacterial activity against vancomycin-resistant Staphylococcus aureus assessed as inhibition of bacterial growth; assay type: functional
[5] = test system: Staphylococcus aureus; assay: Antibacterial activity against methicillin-resistant Staphylococcus aureus assessed as inhibition of bacterial growth; assay type: functional
[6] = Stability in simulated gastric acid assessed as compound remaining at pH 1.3 measured at 1.5 hrs; assay type: ADME; details: read-out: Stability
[7] = Stability in simulated gastric acid assessed as compound remaining at pH 1.3 measured at 0.5 hrs; assay type: ADME; details: read-out: Stability
[8] = test system: Staphylococcus aureus; assay: Antibacterial activity against Linezolid-resistant Staphylococcus aureus infected in systemic infection SPF-kunming mouse model assessed as survival rate at 10 to 40 mg/kg, IG measured 3 days after infection; assay type: functional, organism-based; details: dose 10-40 mg/kg

O=C1O[C@@H](CO)CN1c1ccc(-c2ccc(/C=N/N3CCOCC3)nc2)c(F)c1
Activity [1]: Active | IC50 [2]: 34.8 µM | Activity [3]: Dose-Dependent Effect

CC(=O)NC[C@H]1CN(c2ccc(N3CCOCC3)c(F)c2)C(=O)O1 [LINEZOLID]
MIC [4]: 1 µg/mL (≈ 2.96 µM) | MIC [5]: 1 µg/mL (≈ 2.96 µM)

CC(C)N/N=C/c1ccc(-c2ccc(N3C[C@H](CO)OC3=O)cc2F)cn1
remaining at 1.5 h [6]: 90.8% | remaining at 0.5 h [7]: 96.7%

O=C1O[C@@H](CO)CN1c1ccc(-c2ccc(/C=N/N3CCCCC3)nc2)c(F)c1
Activity [8]: inactive
